Measurements from article PMC11189555, “Aryl amino acetamides prevent Plasmodium falciparum ring development via targeting the lipid-transfer protein PfSTART1” (Nature Communications, 2024).
“And” between values parts separate entries of the source, which are not always exact repeats. Equal entries are not always repeated. Where two headings read alike, the source gives them in different places.

Legend:
[1] = test system: female gametes from mature stage V gametocytes; test: Dual gamete formation assay: female gamete formation (Pfs25 expression); type: cell-based, Plasmodium falciparum
Protocol: The compounds were tested in the P. falciparum Dual Gamete Formation Assay (PfDGFA)[84], fully described in the Supplementary Information. […]
Dual gamete formation assays. The compounds were tested in the P. falciparum Dual Gamete Formation Assay (PfDGFA) 13. Briefly, mature stage V gametocytes were exposed to compounds for 48 h at 37°C in 384 well plates in gametocyte culture medium (RPMI 1640 supplemented with 25 mM HEPES, 50 μg/mL hypoxanthine, 4.8 g/L NaHCO3, 2 mM L-glutamine, 5% pooled type AB serum, 0.5% Albumax II (Gibco)) under a 1% O2, 3% CO2, 96% N2 environment. Gametogenesis was then triggered by the addition of 10 μL ookinete medium (gametocyte culture medium supplemented with 100 μM xanthurenic acid and 0.27 µg/mL Cy3-labelled anti-Pfs25 antibody) to each well at room temperature. Plates were then cooled on a metal block at 4°C for four min to ensure even cooling and then stabilised for a further 4 min at 28°C. At 20 min post-induction, male gametogenesis was recorded in each well by automated brightfield microscopy using a x4 objective lens and 1.5x magnifier (x6 effective magnification). Afterward, plates were incubated in the dark at room temperature for 24 h and then female gametogenesis recorded in each well by automated fluorescence microscopy (anti-Pfs25-positive cells). All experiments were performed in quadruplicate with DMSO and cabamiquine (DDD107498)17 as negative and positive controls respectively. All data was evaluated in comparison to the positive and negative controls to calculate percentage inhibition of male and female gametocytes, and dose response analysis and IC50 calculation performed using GraphPad Prism. […]

CR-WT parasites = test: Growth inhibition assay (72 h, LDH activity); type: cell-based, Plasmodium falciparum; conditions: CR-WT; for inhibition at 0.1 µM / inhibition at up to 0.1 µM / EC50: Plasmodium falciparum; for inhibition at 0.1 µM / inhibition at up to 0.1 µM: read-out: NORMALISED (growth inhibition, LDH absorbance); for EC50: read-out: EC50 W-991 (95% confidence interval), Fig 4C, n = 3
Protocol: Parasite growth assays with inhibitory compounds were performed as per[11] and are fully described in the Supplementary Information.
Molecular biology and transfection of P. falciparum: CRISPR method.
The full 5’ homology region of pfstart1 (either WT, N309K or N330K) was amplified from pPfSTART1-HA-2A-Neo-glmS with the same 5’ BglII primer and a new 3’ primer that replaced with PstI with SpeI and introduced a stop codon. The PCR product was then digested with BglII and SpeI and inserted into similarly digested p1.2 parasite vector2. The p1.2 vector had previously been inserted with a homology region amplified from the 3’ end of the pfstart1 gene (3’HB) to form a second homology block for double recombination. The primers used to amplify 3’HB are listed primers listed in […]
60 μg of p1.2-PfSTART1(WT/N309K/N330K) plasmid was linearised with KasI, precipitated in 3 M sodium acetate and ethanol (70% final concentration) overnight at -20°C. The DNA pellet was washed in cold 70% ethanol and resuspended in cytomix 3.
50 μ M of crRNA ( Table S 2) and 50 μM of tracRNA (Integrated DNA Technologies) were allowed to form a duplex (5 min at 95°C), and Cas9 enzyme (Integrated DNA Technologies) was added, and incubated for 20 min at room temperature 4. This crRNA -tracRNA -Cas9 mix was added to each DNA preparation and transfected to 3D7 ring parasites using the Bio -Rad Gene Pulser at 310 V and 950 μF.
Parasites containing the transfected DNA were selected using 2.5 nM WR99210 (Jacobus). Parasites lines were cloned using limiting dilution. Correct integration was tested by PCR (using primer START_5’UTR.F and START_Int.R1 , Table S 2), and sequencing was done using the primers START_3F and START_Int.R2 (Table S 2).
Growth inhibition assays. Synchronised ring-stage parasites (0.3-0.6% parasitemia, 2% haematocrit) were grown for 72 h in a serial-dilution of the compound under […]
and compound 4. Note that M-833 was first purchased from MolPort (MolPort -002-267-916) then made in-house at WEHI: the differences observed in EC50s across experiments are attributed to the different batches of M -833. For some experiments, 0, 0.25 or 2.5 mM of glucosamine (GlcN) was also added. Experiments were set up in technical duplicates or triplicates. Following a freeze -thaw cycle, lactate dehydrogenase (LDH) activity was assessed as an indicator of parasite growt h 5. 30 μL of parasite culture was incubated for 30 min in the dark with 75 μL Malstat mixture (0.1 M Tris pH 9.0, 20 g/L lactic acid, pH 7.5, 0.2% Triton-X100, 0.5 g/L acetylpyridine adenine dinucleotide (APAD, Sigma), 200 μg/mL nitroblue tetrazolium (NBT; Sigma), 1 μg/mL phenozine ethosulfate (PES; Sigma)). Absorbance was then measured at 650 nm, transformed using the formula below, plotted against the logarithm of the concentrations, and a non-linear regression (log(inhibitor) vs. response, variable slope) was calculated using GraphPad Prism to assess the half-inhibitory […]
Growth inhibition % = (1 − average(sample)− average(uRBC)) ∗ 100 […]
The DMSO samples were also used to assess growth of parasite in the presence of 0.25 and 2.5 mM GlcN (normalised by DMSO in 0 mM GlcN). […]

[2] = 0.25 mM GlcN, dilution point 1 of 10, starting concentration 100 nM
[3] = 2.5 mM GlcN, dilution point 1 of 10, starting concentration 100 nM
[4] = 2.5 mM GlcN, dilution point 2 of 10 from starting concentration 100 nM
[5] = 2.5 mM GlcN, dilution point 3 of 10 from starting concentration 100 nM
[6] = 2.5 mM GlcN, dilution point 4 of 10 from starting concentration 100 nM
[7] = 2.5 mM GlcN, dilution point 6 of 10 from starting concentration 100 nM

Structure (SMILES): CC(C)(Nc1ccc(Cl)c(S(=O)(=O)N2CCOCC2)c1)C(=O)Nc1ccc(F)c(Cl)c1 [W-991]
- inhibition of female gamete formation ([1]; 1 µM, 48 h treatment of mature gametocytes): no inhibition
- Dual Gamete Formation Assay: Female at 1 µM, Mean ([1]; mean of 4 plates): -2.932
- NORMALISED (growth inhibition, LDH absorbance vs DMSO and uRBC) (CR-WT parasites; 0 mM GlcN, W991 at 1.23457 nM): 49.5102 and 70.9626
- NORMALISED (growth inhibition, LDH absorbance vs DMSO and uRBC) (CR-WT parasites; 0 mM GlcN, W991 at 3.7037 nM): 86.3119 and 94.5107
- NORMALISED (growth inhibition, LDH absorbance vs DMSO and uRBC) (CR-WT parasites; 0 mM GlcN, W991 at 11.1111 nM): 91.2364 and 97.6134
- NORMALISED (growth inhibition, LDH absorbance vs DMSO and uRBC) (CR-WT parasites; 0 mM GlcN, W991 at 33.3333 nM): 92.4279 and 96.4200
- NORMALISED (growth inhibition, LDH absorbance vs DMSO and uRBC) (CR-WT parasites; 0 mM GlcN, W991 at 100 nM): 91.9778 and 98.0111
- NORMALISED (growth inhibition, LDH absorbance) (CR-WT parasites; [2]): 97.4106
- NORMALISED (growth inhibition, LDH absorbance) (CR-WT parasites; 0.25 mM GlcN, dilution point 2 of 10 from starting concentration 100 nM): 93.8101
- NORMALISED (growth inhibition, LDH absorbance) (CR-WT parasites; 0.25 mM GlcN, dilution point 3 of 10 from starting concentration 100 nM): 94.0567
- NORMALISED (growth inhibition, LDH absorbance) (CR-WT parasites; 0.25 mM GlcN, dilution point 4 of 10 from starting concentration 100 nM): 92.7990
- NORMALISED (growth inhibition, LDH absorbance) (CR-WT parasites; 0.25 mM GlcN, dilution point 5 of 10 from starting concentration 100 nM): 69.6729 and 71.5413
- NORMALISED (growth inhibition, LDH absorbance) (CR-WT parasites; 0.25 mM GlcN, dilution point 6 of 10 from starting concentration 100 nM): 30.2387 and 29.5808
- NORMALISED (growth inhibition, LDH absorbance) (CR-WT parasites; [3]): 92.5403
- NORMALISED (growth inhibition, LDH absorbance) (CR-WT parasites; [4]): 92.2581
- NORMALISED (growth inhibition, LDH absorbance) (CR-WT parasites; [5]): 92.0699
- NORMALISED (growth inhibition, LDH absorbance) (CR-WT parasites; [6]): 91.3306
- NORMALISED (growth inhibition, LDH absorbance) (CR-WT parasites; 2.5 mM GlcN, dilution point 5 of 10 from starting concentration 100 nM): 90.4301
- NORMALISED (growth inhibition, LDH absorbance) (CR-WT parasites; [7]): 75.1747
- NORMALISED (growth inhibition, LDH absorbance) (CR-WT parasites; 2.5 mM GlcN, dilution point 7 of 10 from starting concentration 100 nM): 66.8125 and 50.5511
- NORMALISED (growth inhibition, LDH absorbance) (CR-WT parasites; 2.5 mM GlcN, dilution point 8 of 10 from starting concentration 100 nM): 47.5123 and 39.2070
- NORMALISED (growth inhibition, LDH absorbance) (CR-WT parasites; 2.5 mM GlcN, dilution point 9 of 10 from starting concentration 100 nM): 32.6882 and 33.0782
- NORMALISED (growth inhibition, LDH absorbance) (CR-WT parasites; 2.5 mM GlcN, dilution point 10 of 10 from starting concentration 100 nM): 35.7796 and 19.6829
- fold sensitised on PfSTART1 knock-down with GlcN (CR-WT parasites; Fig 4C): 7 fold
- inhibition at 0.1 µM (CR-WT parasites; [2]): 93.4%
- inhibition at 0.1 µM (CR-WT parasites; [3]): 94.2%
- inhibition at up to 0.1 µM (CR-WT parasites; [4]): 91.4%
- inhibition at up to 0.1 µM (CR-WT parasites; [5]): 93%
- inhibition at up to 0.1 µM (CR-WT parasites; [6]): 91.6%
- inhibition at up to 0.1 µM (CR-WT parasites; [7]): 80.3%
- EC50 (CR-WT parasites; 0 mM GlcN): 1.08 nM
- EC50 (CR-WT parasites; 0.25 mM GlcN): 0.727 nM
- EC50 (CR-WT parasites; 2.5 mM GlcN): 0.154 nM
